Read-outs that look alike come from different tables or passages of the source.

Here are results for 4 compounds from patent US4959493A, “Carboxycyclopropylglycine and process for producing the same” (Suntory Limited, priority 1987, dated 1990).

In series [1] the test system is motoneurons in the isolated spinal cord of a neonatal rat. Put plainly: Depolarization of motoneurons in the isolated spinal cord of a neonatal rat (extracellular records, Evans and Watkins method). It is filed as cell-based. As to conditions: for Effect of Mg++ ions on depolarizing activity: in the presence of Mg++ ions; for minimal effective concentration: read-out: MEC (minimum effective concentration for causing depolarizations of motoneurons); for Agonist type (glutamate receptor subtype): isolated new-born rat spinal cord; for Specific activity: relative to L-glutamic acid = 1. On the procedure:
In accordance with the method described in Evans, R. H. and Watkins, J. C., European J. Pharmac., 50 123-129, 1978, the minimum effective concentrations (MEC) of L-glutamic acid and compounds (1), (1a), (1b) and (1c) of the present invention for causing depolarizations of motoneurons in the isolated spinal cord of a neonatal rat under perfusion with an artificial physiological solution ([…] fluid) were measured as extracellular records in the […] root.

The conditions of series [2]: isolated from Aesculus parviflora and Blighia sapida; Fowden et al. 1969; cited from earlier work.
Where [3] appears, read: isolated neonatal rat spinal cord perfused with artificial physiological solution, (-) = Ineffective.

Turning to `N[C@H](C(=O)O)[C@H]1C[C@@H]1C(=O)O` [(1a), (2S,3S,4S)-carboxycyclopropylglycine], in series [1], the “Effect of Mg++ ions on depolarizing activity” value was “Unaffected” and the “Agonist type (glutamate receptor subtype)” value is recorded as “agonist of the kainate type”. In addition, the minimal effective concentration in series [1] (setting [3]) came to 50 µM. The compound also returned a Specific activity in series [1] ((-) = Ineffective) of 5. Besides, in series [2], the Undesired effects result is “hypoglycemia and vomiting”.

Take `N[C@H](C(=O)O)[C@H]1C[C@H]1C(=O)O` [(1c), (2S,3S,4R)-carboxycyclopropylglycine]: the minimal effective concentration in series [1] (setting [3]) came out at 500 µM. This compound also came in with a Specific activity in series [1] ((-) = Ineffective) of 0.5. Further, the Undesired effects result in series [2] is “hypoglycemia and vomiting”.

`N[C@H](C(=O)O)[C@@H]1C[C@@H]1C(=O)O` [Compound (1), (2S,3R,4S)-carboxycyclopropylglycine]: in series [1] (compared with NMDA activity of 2×10^-5 molar), the “Potency relative to NMDA” value is 5 times. In series [1], the “Effect of Mg++ ions on depolarizing activity” value is on record as “activity disappeared” and the “Agonist type (glutamate receptor subtype)” value was “agonist of the NMDA type”. Further, the minimal effective concentration in series [1] (setting [3]) worked out at 1 µM. Further, the Specific activity in series [1] ((-) = Ineffective) is reported as 100.

`N[C@@H](CCC(=O)O)C(=O)O` [L-Glu, L-glutamic acid, reference compound]: in series [1] (Rattus norvegicus), the minimal effective concentration amounted to 100 µM. The compound also registered a Specific activity in series [1] ((-) = Ineffective) of 1.
